Molecular target: T1, Glutamate Dehydrogenase (GDH) (Rattus norvegicus, UniProt P10860)
T1 construct: only the supernatant was collected and transferred to a new tube to obtain a cell lysate; endogenous in cells; host or cells: INS-1 cell line (lysate)
Experiment: Enzyme activation experiment: GDH Activity Colorimetric Assay Kit on INS-1 cell lysate
Type: biochemical
Settings: vehicle-treated group set to 1
Protocol: Enzyme Activation Experiment
A sufficient amount of cells was obtained by culturing the INS-1 cell line under general cell culture condition (37° C. 5% CO2). Immediately before use in the experiment, a culture dish of the INS-1 cells was placed on ice, the culture medium was removed, and then washed with cold phosphate-buffered saline (PBS) (WELGEME, LB 001-02) to obtain a cell pellet.
To the harvested cell pellet, an appropriate amount of ice-cold Assay Buffer contained in the Glutamate Dehydrogenase (GDH) Activity Colorimetric Assay Kit (BioVision, K729-100) was added and then homogenized in the tube.
The tube was subjected to centrifuge in a condition of 13,000 g, 4° C. for 10 minutes, and then the pellet was discarded, and only the supernatant was collected and transferred to a new tube to obtain a cell lysate. Then, the protein concentration of the cell lysate was measured using Pierce™ BCA Protein Assay kit (Thermo, 23225).
By referring to the measured protein concentration, the cell lysate was prepared by diluting its concentration to 30 μg/50 μL or 100 μg/50 μL using the Assay Buffer.
The prepared cell lysate+vehicle or compound+Reaction mix was added according to the volume determined in the protocol of the Glutamate Dehydrogenase (GDH) Activity Colorimetric Assay Kit and reacted at 37° C., and the absorbance at 450 nm was measured using a kinetic method.
The GDH activity was calculated according to the calculation formula shown in the Assay Kit, and then the activity of the group treated with the vehicle was set to 1, and the folds of the remaining groups were calculated, and the results are shown in Table 2 below and FIG. 1.

T1 sequence (P10860 54-558): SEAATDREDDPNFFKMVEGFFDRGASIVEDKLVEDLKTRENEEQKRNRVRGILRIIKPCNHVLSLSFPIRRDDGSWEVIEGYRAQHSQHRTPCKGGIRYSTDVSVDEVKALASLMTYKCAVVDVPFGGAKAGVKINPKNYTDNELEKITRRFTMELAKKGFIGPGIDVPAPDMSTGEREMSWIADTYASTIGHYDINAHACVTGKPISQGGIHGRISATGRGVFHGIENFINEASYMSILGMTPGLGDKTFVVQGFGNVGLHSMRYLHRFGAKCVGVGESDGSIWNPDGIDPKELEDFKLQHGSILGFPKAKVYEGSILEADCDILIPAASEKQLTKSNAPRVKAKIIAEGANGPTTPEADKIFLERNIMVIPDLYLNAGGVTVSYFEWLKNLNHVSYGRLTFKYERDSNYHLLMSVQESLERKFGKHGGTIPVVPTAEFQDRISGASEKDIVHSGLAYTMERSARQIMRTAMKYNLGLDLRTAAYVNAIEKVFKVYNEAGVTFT

SMILES | Enzyme activity (fold) (compound concentration 0.2 μM) | Enzyme activity (fold) (compound concentration 2 μM)
Nc1nccc(-c2ccc(NC(=O)c3ccc(Br)cc3)cc2)n1 [Compound 6, N-(4-(2-aminopyrimidin-4-yl)phenyl)-4-bromobenzamide] | 2.14 | 6.93
Nc1nccc(-c2ccc(NC(=O)c3cccc(C(F)(F)F)c3F)cc2)n1 [Compound 10, N-(4-(2-aminopyrimidin-4-yl)phenyl)-2-fluoro-3-(trifluoromethyl)benzamide] | 2.08 | 10.83

Next, values leading:

Enzyme activity (fold) (compound concentration 0.2 μM) | Enzyme activity (fold) (compound concentration 2 μM) | SMILES
1.94 | 3.23 | COc1cc(C(=O)Nc2ccc(-c3ccnc(N)n3)cc2)ccc1Cl [Compound 7, N-(4-(2-aminopyrimidin-4-yl)phenyl)-4-chloro-3-methoxybenzamide]
1.34 | 11.05 | Nc1nccc(-c2ccc(NC(=O)c3ccc(Cl)cc3)cc2)n1 [Compound 8, N-(4-(2-aminopyrimidin-4-yl)phenyl)-4-chlorobenzamide]
1.13 | 6.43 | Nc1nccc(-c2ccc(NC(=O)c3cc(Cl)cc(Cl)c3)cc2)n1 [Compound 9, N-(4-(2-aminopyrimidin-4-yl)phenyl)-3,5-dichlorobenzamide]

Source: US12208098B2, “4-carbonylamino-4-phenylpyrimidine compound or pharmaceutically acceptable salt thereof” (Gachon University Of Industry-Academic Cooperation …, priority 2018, dated 2025)
